Patent US20160271157A1, “BETA-CATENIN” (UCL BUSINESS PLC, priority 2013, published 2016)
Entries after “also recorded” stand apart in the source; their conditions may differ. Where two headings read alike, the source gives them in different places.

Assays:
[1] = system: β-catenin translocation to the nucleus; experiment: β-catenin immunocytochemistry and nuclear co-localization analysis, PC3; format: cell-based; details: PC3 cells, K+ channel inhibitors 1-15 mM, Wnt5A and 9B
Method: Immunostaining was performed in two different laboratories, independently with the experimenter blind to the identity of the treatment. Either cells used in FluoroDish, post [Ca^2+]i experiments using dyes (see above) or grown in 8 well chamber glass slides (Lab Tek II, Nunc) were used. For Wnt ligand treatment, the culture medium replaced with PBS (without calcium) at 37° C. The experiments were replicated for Wnt ligand or vehicle control as described for [Ca^2+]i measurements. Briefly, Wnt ligands were added and chamber slides incubated at 37° C. for up to 20 min. Chamber wells were washed 3× with 0.5 ml PBS and cells were fixed with 0.5 ml 4% formalin for 30 min at 4° C. Cells were washed 3× with ice cold PBS and stored in 0.5 ml PBS at 4° C. for immunostaining. In some experiments PC3 cells were treated with thaspsigargin as described above.
For immunostaining cells were washed twice for 5 minutes in TBST (20 mM Tris pH 7.4, 0.9% NaCl, 0.1% Tween 20, Sigma). Cells were then incubated in 20% normal goat serum (NGS)/TBST for 30 min at room temperature, the chambers were drained and cells were incubated with mouse anti-β-catenin (ab22656, Abcam, UK) at 1:500 dilution in NGS/TBST overnight at 4° C. Following two further 5 min washes in TBST sections were incubated in goat anti-mouse peroxidase fab (Abcam, UK) at 1:500 dilution for 30 min at room temperature. Following a further two 5 min washes in TBST cells were incubated with tyramide Cy3 (Perkin Elmer) for 10 min at room temperature. Sections were washed twice for 5 min in TBST before nuclear counterstaining with DAPI. After a final two 5 min washes, the chambers were removed and cover slip placed on slides using Permafluor (Thermo Shandon).
Fluorescence immunocytochemical staining for β-catenin expression in cell lines was imaged using Olympus Fluoview 1000 Confocal Microscope (Olympus KeyMed) mounted on an Olympus IX81 inverted microscope using a 20×0.7 NA or 40×1.0 NA dry objective with a zoom of ×3.4′,6-diamidino-2-phenylindole (DAPI, nuclear counterstain) was excited at 405 nm with an emission of 415-500 nm; Cy3 (β-catenin label) signal was excited at 561 nm with an emission spectrum between 570-670 nm. […] Z-stacks of at least 3 fields per sample were imaged and saved in Olympus FV (OIF or OIB) file format.
Nuclear co-localization of β-catenin was calculated by importing FV files for untreated, control or treated cells, into colocalization plugin of Fiji software (http://fiji.sc/Fiji) for Cy3 (β-catenin) and DAPI (nuclear) signals. Pearson co-relation of colocalization were tabulated for 25-90 cells (from 2-5 different passages of cells) using ROI analysis. Statistical significance between untreated and treated cells was calculated using Mann Whitney U test.

[2] = system: PC3 prostate cancer cell line; experiment: Cell proliferation assay, live imaging (Incucyte), PC3; format: cell-based
Method: Growth curve was monitored at 37° C. in a CO2 incubator by using time lapse imaging with Incucyte (Essen Biosciences) for up to 150 h after plating the cells (t=o) at a density of 25-100 k cells per well in a 6 well plate (Nunc). MPRCs were added at the stated concentrations 24 h after cell plating;
A live imaging system (Incucyte, EssenBiosciences) was used to measure the effect of K^+ channel inhibitors on the rate of cell proliferation. PC3 cells were plated on 6 well plates (Nunc) in 3 ml culture medium (Wang et al (2010) PLoS ONE 5, e10456); K^+ channel inhibitors were added to the wells at 0-15 mM. The plates were placed in Incucyte in a standard cell culture incubator at 37° C. and CO2. Each well was imaged at an interval of up to 4 h and rate of cell proliferation was calculated from these images using Incucyte software.

[3] = system: Wnt induced calcium release; experiment: Wnt induced [Ca2+]i release after preincubation with thapsigargin or membrane potential regulating compounds; format: cell-based
Method: The imaging protocol was developed in the inventor's laboratory and has been described in detail, elsewhere (Wang at al., (2010) PLoS ONE 5, e10456). Briefly, 100000-200000 PC3, MCF7, 253J or Cos 7 cells were plated on 35 mm FluoroDish (WPI) and grown for 48 h; calcium indicators Fluo-4 (Invitrogen) and FuraRed (Invitrogen) at 1 ng/ml were added to FluoroDish containing only 1 ml of culture medium and incubated for 15-20 min at 37° C. The culture medium was removed and washed (×2) and replaced with 1 ml PBS. Live cell calcium Imaging was performed on an Olympus FluoView FV 1000 confocal microscope (Olympus KeyMed) equipped with a 20× dry objective (numerical aperture=0.75). Calcium indicators were excited with an argon laser line (488 nm) and emissions recorded in the green channel (500-560 nm) for Fluo-4 and red channel (600-700 nm) for FuraRed after addition of vehicle control (PBS) or Wnt X (30-600 ng/ml). Images were acquired every 1.1 or 2.2 seconds for up to 600-800s; image and data acquisition was performed using FluoView 1000 software (Olympus, UK). Fluorescent intensity was measured and data exported as a tab delimited file for further analysis using a spreadsheet. All imaging experiments were performed in duplicate; intracellular calcium at 100 ng/ml was measured in at least 3-12 different passages (passage numbers 25 to 37) of cell line for each Wnt ligand. Wnt 11 was tested in at least 5 different passages at 3 different concentrations. […]
To measure the effect of changes in membrane potential on [Ca^2+]i release using the protocol described above, in some experiments, external solution (PBS) was substituted with varying concentrations of KCl. In other experiments chemical inhibitors of K^+ channels such as TEA, CsCl or tolbutamide (Sigma-Aldrich) were added to the cells grown on FluoroDish, at 37° C., at least 5 min prior to addition of Wnt ligands.
After image acquisition, regions of interest (ROI) were drawn over individual PC3 cells (up to 25) in a single frame and calcium intensity measurements were made using FluoView 1000 software (Olympus, UK). The measurements were exported as a tab delimited file into a spreadsheet for further analysis and Fluo4/Fura Red ratios were calculated. The waveform, a product of the ratio of Fluo4 and FuraRed over the period of measurement was used to measure the kinetics of the activation of [Ca^2+]i release in PC3 cells, in response to different Wnt ligands. The time constants (rise, dwell and fall times) were calculated by first fitting the Fluo4/FuraRed ratio to a single Gaussian function (Origin Lab Corp., MA); a lower (10%) and upper (90%) amplitude thresholding method was then used to calculate the time constants (s). Statistical significance was calculated using Mann Whitney U test.

[4] = system: MCF7 breast cancer cell line; experiment: Cell growth, time lapse imaging (Incucyte), MCF7; format: cell-based, human; details: MCF7 cells, nicorandil shown as an example
Method: Growth curve was monitored at 37° C. in a CO2 incubator by using time lapse imaging with Incucyte (Essen Biosciences) for up to 150 h after plating the cells (t=o) at a density of 25-100 k cells per well in a 6 well plate (Nunc). MPRCs were added at the stated concentrations 24 h after cell plating.

[5] = PC3 cells, inhibitors at 0-15 mM
[6] = preincubation 5 min, Wnt 9B 0.1 μg/ml as example, CsCl 5 mM, CdCl2 1 mM, TEA 10 mM, Amiodarone 75 μM, Tolbutamide 1 mM, Isradipine 100 μM, Nifedipine 1 mM, Minoxidil 25 μM, Atenolol 37.5 μM, Propanolol 50 μM, Furosemide 150 μM

Compound | Wnt mediated β-catenin stabilization and translocation to the nucleus (FIG. 11) [1] | rate of cell proliferation (confluence of cell growth, FIG. 12) [2, 5] | Wnt ligand induced calcium release after preincubation with MPRC (FIG. 16) [3, 6] | other results
[Cl-].[Cs+] [CsCl] | reduced | inhibit proliferation | inhibited | –
O=C(NCCO[N+](=O)[O-])c1cccnc1 [Nicorandil] | – | – | – | cell proliferation (FIG. 22 D) [4]: do not inhibit; cell proliferation (FIG. 22 C) ([2]; PC3 cells, Incucyte, nicorandil shown as an example): do not inhibit; Wnt signaling measured using intracellular calcium release (FIG. 22 A and B) [3]: do not inhibit
CC(C)NCC(O)COc1cccc2ccccc12 (stereo not drawn) [Propanolol] | – | – | inhibited | –
CC[N+](CC)(CC)CC [TEA, tetraethylammonium] | reduced; also recorded: biggest reduction | – | – | rate of cell proliferation (confluence of cell growth, FIG. 12) [2]: inhibit proliferation; Wnt induced [Ca2+]i release after pre-incubation with K+ channel blocker (FIG. 11) [3]: reduced; also recorded: abolished; Wnt ligand induced calcium release after preincubation with MPRC (FIG. 16) [3]: inhibited
CCCCNC(=O)NS(=O)(=O)c1ccc(C)cc1 [Tolbutamide] | reduced; also recorded: inhibition | inhibit proliferation | inhibited | rate of cell proliferation (confluence of cell growth, FIG. 12) ([2]; PC3 cells, inhibitors at 0-15 mM, listed as tolbutamide): inhibition
